Laboratory results from paper PMC6804253, “Predicting and Experimentally Validating Hot-Spot Residues at Protein–Protein Interfaces” (ACS Chemical Biology, 2019).
Where two headings read alike, the source gives them in different places. Where a SMILES comes first, the peptide text is derived from it. Where no end group is shown, it is not given here. The star is where a group is joined. 5FAM = O=C1OC2(c3ccc(O)cc3Oc3cc(O)ccc32)c2ccc(C(=O)*)cc21; AEEA = NCCOCCOCC(=O)O

Columns and labels:
SUMO-1 = target: T1, SUMO-1 (Homo sapiens, UniProt P63165); format: binding
T1 construct: The pet19b His-TEV-SUMO-1 (18-97) construct was over-expressed; His-TEV (N, cleaved yes); made in house; host or cells: E. coli Rosetta 2

SHANK-PDZ = target: T2, SHANK-PDZ (Homo sapiens, UniProt Q9Y566); settings: for H (fitted ITC data): binding enthalpy from ITC fit; for H (fitted ITC data) / S (fitted ITC data): 20 mM Tris, 150 mM NaCl pH 7.5 at 25 °C; for S (fitted ITC data): binding entropy from ITC fit
T2 sequence (Q9Y566 656-762): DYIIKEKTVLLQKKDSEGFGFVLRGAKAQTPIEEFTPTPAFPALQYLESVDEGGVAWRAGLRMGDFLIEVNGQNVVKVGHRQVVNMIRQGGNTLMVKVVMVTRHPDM

[1] = tested on: PPIs of the SKEMPI data set (by PDBID); assay: SKEMPI experimental ΔΔG, single mutations to alanine; format: binding; settings: for sk_class (class of the SKEMPI experimental ΔΔG): Positive / Neutral / Negative by ΔΔG threshold 4.184 kJ/mol
[2] = tested on: PPIs of the SKEMPI data set (by PDBID); settings: cited from earlier work; for sk_ddG_kJ (SKEMPI experimental ΔΔG of binding, mutation to alanine): single mutation to alanine in the complex of the given PDBID
[3] = tested on: PPIs of the SKEMPI data set (by PDBID); settings: Flex_ddG Talaris2014, 1 REU = 1 kcal/mol assumed; cited from earlier work
[4] = tested on: PPIs of the SKEMPI data set (by PDBID); settings: Flex_ddG Ref2015, 1 REU = 1 kcal/mol assumed; cited from earlier work
[5] = class of the experimental SKEMPI ΔΔG
[6] = experimental ΔΔG of single mutation to alanine, SKEMPI database
[7] = class of the SKEMPI experimental ΔΔG, ref SKEMPI
[8] = SKEMPI experimental ΔΔG of binding, single mutation to alanine, complex by PDBID, ref SKEMPI

T1 sequence (P63165 18-97, species assumed): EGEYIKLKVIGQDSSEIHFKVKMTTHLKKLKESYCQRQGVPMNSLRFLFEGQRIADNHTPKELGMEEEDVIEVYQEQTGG

CC[C@H](C)[C@H](NC(=O)[C@H](C)NC(=O)[C@H](CCC(=O)O)NC(=O)[C@@H](NC(=O)[C@H](CCC(=O)O)NC(=O)[C@H](CC(N)=O)NC(=O)[C@H](CC(=O)O)NC(=O)COCCOCCNC(=O)c1ccc2c(c1)C(=O)OC21c2ccc(O)cc2Oc2cc(O)ccc21)[C@@H](C)CC)C(=O)N[C@H](C(=O)N[C@H](C(=O)N[C@@H](Cc1c[nH]c2ccccc12)C(=O)N[C@@H](CCC(=O)O)C(=O)N[C@@H](CCCCN)C(=O)N[C@@H](CCCCN)C(N)=O)C(C)C)[C@@H](C)CC [FAM-V2710A SIM] ({5FAM-AEEA}-DNEIEAIIVWEKK-NH2)
Experimental competition (ΔΔG on mutation of the residue to alanine) (SUMO-1): 4.7
Experimental competition (ΔΔG) (SUMO-1): 1.12 kcal/mol

Ac-EAQTRL-NH2 [CO2H-CONH2 GKAP]
Experimental ΔΔG, direct titration (SHANK-PDZ): 2.72 kcal/mol
H (fitted ITC data) (SHANK-PDZ): -1.57 ± 0.18 kcal/mol
S (fitted ITC data) (SHANK-PDZ): 11.2 cal/molK

1A22 LA6A
sk_class (class of the SKEMPI experimental ΔΔG) ([1]; ref SKEMPI): Neutral (neutral (little effect) 4.184 kJ/mol < ΔΔG > −4.184 kJ/mol)
sk_class [1, 5]: Neutral (neutral (little effect) 4.184 kJ/mol < ΔΔG > −4.184 kJ/mol)
sk_ddG_kJ [2, 6]: 0.6 kcal/mol
sk_ddG_kJ (SKEMPI experimental ΔΔG of binding, mutation to alanine) ([2]; ref SKEMPI): 2.51 kJ
rosetta_ddG_kJ [3]: -0.0669 kcal/mol
ref2015_ddG_kJ [4]: -0.184 kcal/mol

CC[C@H](C)[C@H](NC(=O)[C@H](CCC(=O)O)NC(=O)[C@H](CC(N)=O)NC(=O)[C@H](CC(=O)O)NC(=O)COCCOCCNC(=O)c1ccc2c(c1)C(=O)OC21c2ccc(O)cc2Oc2cc(O)ccc21)C(=O)N[C@@H](CCC(=O)O)C(=O)N[C@H](C(=O)N[C@H](C(=O)N[C@@H](C)C(=O)N[C@H](C(=O)N[C@@H](Cc1c[nH]c2ccccc12)C(=O)N[C@@H](CCC(=O)O)C(=O)N[C@@H](CCCCN)C(=O)N[C@@H](CCCCN)C(N)=O)C(C)C)[C@@H](C)CC)C(C)C [FAM-I2712A SIM] ({5FAM-AEEA}-DNEIEVIAVWEKK-NH2)
Experimental competition (ΔΔG on mutation of the residue to alanine) (SUMO-1): 5.7
Experimental competition (ΔΔG) (SUMO-1): 1.36 kcal/mol

1A22 IA4A
sk_class (class of the SKEMPI experimental ΔΔG) ([1]; ref SKEMPI): Neutral (neutral (little effect) 4.184 kJ/mol < ΔΔG > −4.184 kJ/mol)
sk_class [1, 5]: Neutral (neutral (little effect) 4.184 kJ/mol < ΔΔG > −4.184 kJ/mol)
sk_ddG_kJ [2, 6]: 0.411 kcal/mol
sk_ddG_kJ (SKEMPI experimental ΔΔG of binding, mutation to alanine) ([2]; ref SKEMPI): 1.72 kJ
rosetta_ddG_kJ [3]: -0.124 kcal/mol
ref2015_ddG_kJ [4]: -0.201 kcal/mol

1A22 PA5A
sk_class [1, 5]: Neutral (neutral (little effect) 4.184 kJ/mol < ΔΔG > −4.184 kJ/mol)
sk_class (class of SKEMPI experimental ΔΔG) ([2]; class by ΔΔG threshold 4.184 kJ/mol, ref SKEMPI): Neutral (neutral (little effect) 4.184 kJ/mol < ΔΔG > −4.184 kJ/mol)
sk_ddG_kJ [2, 6]: 0.43 kcal/mol
sk_ddG_kJ (SKEMPI experimental ΔΔG, mutation to alanine) ([2]; single mutation to alanine, complex given by PDBID, residue group in r_group, ref SKEMPI): 1.80 kJ
rosetta_ddG_kJ [3]: 0.146 kcal/mol
ref2015_ddG_kJ [4]: 0.0406 kcal/mol

Ac-EAQTRL [GKAP]
H (fitted ITC data) (SHANK-PDZ): -6.54 ± 0.04 kcal/mol
S (fitted ITC data) (SHANK-PDZ): 3.49 cal/molK

CC[C@H](C)[C@H](NC(=O)[C@H](CCC(=O)O)NC(=O)[C@H](CC(N)=O)NC(=O)[C@H](CC(=O)O)NC(=O)COCCOCCNC(=O)c1ccc2c(c1)C(=O)OC21c2ccc(O)cc2Oc2cc(O)ccc21)C(=O)N[C@@H](CCC(=O)O)C(=O)N[C@H](C(=O)N[C@H](C(=O)N[C@H](C(=O)N[C@H](C(=O)N[C@@H](C)C(=O)N[C@@H](CCC(=O)O)C(=O)N[C@@H](CCCCN)C(=O)N[C@@H](CCCCN)C(N)=O)C(C)C)[C@@H](C)CC)[C@@H](C)CC)C(C)C [FAM-W2714A SIM] ({5FAM-AEEA}-DNEIEVIIVAEKK-NH2)
Experimental competition (ΔΔG on mutation of the residue to alanine) (SUMO-1): 8.1
Experimental competition (ΔΔG) (SUMO-1): 1.94 kcal/mol

CC[C@H](C)[C@H](NC(=O)[C@H](C)NC(=O)[C@H](CC(N)=O)NC(=O)[C@H](CC(=O)O)NC(=O)COCCOCCNC(=O)c1ccc2c(c1)C(=O)OC21c2ccc(O)cc2Oc2cc(O)ccc21)C(=O)N[C@@H](CCC(=O)O)C(=O)N[C@H](C(=O)N[C@H](C(=O)N[C@H](C(=O)N[C@H](C(=O)N[C@@H](Cc1c[nH]c2ccccc12)C(=O)N[C@@H](CCC(=O)O)C(=O)N[C@@H](CCCCN)C(=O)N[C@@H](CCCCN)C(N)=O)C(C)C)[C@@H](C)CC)[C@@H](C)CC)C(C)C [FAM-E2707A SIM] ({5FAM-AEEA}-DNAIEVIIVWEKK-NH2)
Experimental competition (ΔΔG on mutation of the residue to alanine) (SUMO-1): 1.7
Experimental competition (ΔΔG) (SUMO-1): 0.406 kcal/mol

B1: 1DAN KT46A (protein, UniProt P13726 33-251, looked up, variant K46A)
extracellular domain: SGTTNTVAAYNLTWKSTNFKTILEWEPKPVNQVYTVQISTKSGDWASKCFYTTDTECDLTDEIVKDVKQTYLARVFSYPAGNVESTGSAGEPLYENSPEFTPYLETNLGQPTIQSFEQVGTKVNVTVEDERTLVRRNNTFLSLRDVFGKDLIYTLYYWKSSSSGKKTAKTNTNEFLIDVDKGENYCFSVQAVIPSRTVNRKSTDSPVECMGQEKGEFRE
modifications: extracellular domain
sk_class [1, 7]: Neutral (neutral (little effect) 4.184 kJ/mol < ΔΔG > −4.184 kJ/mol)
sk_ddG_kJ [2, 8]: 1.00 kJ

B2: 1DAN DU129A (protein, UniProt P13726 33-251, looked up, variant D129A)
extracellular domain: SGTTNTVAAYNLTWKSTNFKTILEWEPKPVNQVYTVQISTKSGDWKSKCFYTTDTECDLTDEIVKDVKQTYLARVFSYPAGNVESTGSAGEPLYENSPEFTPYLETNLGQPTIQSFEQVGTKVNVTVEAERTLVRRNNTFLSLRDVFGKDLIYTLYYWKSSSSGKKTAKTNTNEFLIDVDKGENYCFSVQAVIPSRTVNRKSTDSPVECMGQEKGEFRE
modifications: extracellular domain
sk_class [1, 7]: Neutral (neutral (little effect) 4.184 kJ/mol < ΔΔG > −4.184 kJ/mol)
sk_ddG_kJ [2, 8]: -0.08 kJ

B3: 1DAN EU99A (protein, UniProt P13726 33-251, looked up, variant E99A)
extracellular domain: SGTTNTVAAYNLTWKSTNFKTILEWEPKPVNQVYTVQISTKSGDWKSKCFYTTDTECDLTDEIVKDVKQTYLARVFSYPAGNVESTGSAGEPLYENSPAFTPYLETNLGQPTIQSFEQVGTKVNVTVEDERTLVRRNNTFLSLRDVFGKDLIYTLYYWKSSSSGKKTAKTNTNEFLIDVDKGENYCFSVQAVIPSRTVNRKSTDSPVECMGQEKGEFRE
modifications: extracellular domain
sk_class [1, 7]: Neutral (neutral (little effect) 4.184 kJ/mol < ΔΔG > −4.184 kJ/mol)
sk_ddG_kJ [2, 8]: -0.75 kJ

B4: 1DAN DT58A (protein, UniProt P13726 33-251, looked up, variant D58A)
extracellular domain: SGTTNTVAAYNLTWKSTNFKTILEWEPKPVNQVYTVQISTKSGDWKSKCFYTTDTECALTDEIVKDVKQTYLARVFSYPAGNVESTGSAGEPLYENSPEFTPYLETNLGQPTIQSFEQVGTKVNVTVEDERTLVRRNNTFLSLRDVFGKDLIYTLYYWKSSSSGKKTAKTNTNEFLIDVDKGENYCFSVQAVIPSRTVNRKSTDSPVECMGQEKGEFRE
modifications: extracellular domain
sk_class [1, 7]: Positive (positive (a hot residue) ΔΔG ≥ 4.184 kJ/mol)
sk_ddG_kJ [2, 8]: 8.37 kJ

B5: 1DAN KU122A (protein, UniProt P13726 33-251, looked up, variant K122A)
extracellular domain: SGTTNTVAAYNLTWKSTNFKTILEWEPKPVNQVYTVQISTKSGDWKSKCFYTTDTECDLTDEIVKDVKQTYLARVFSYPAGNVESTGSAGEPLYENSPEFTPYLETNLGQPTIQSFEQVGTAVNVTVEDERTLVRRNNTFLSLRDVFGKDLIYTLYYWKSSSSGKKTAKTNTNEFLIDVDKGENYCFSVQAVIPSRTVNRKSTDSPVECMGQEKGEFRE
modifications: extracellular domain
sk_class [1, 7]: Neutral (neutral (little effect) 4.184 kJ/mol < ΔΔG > −4.184 kJ/mol)
sk_ddG_kJ [2, 8]: -0.50 kJ

B6: 1DAN EU128A (protein, UniProt P13726 33-251, looked up, variant E128A)
extracellular domain: SGTTNTVAAYNLTWKSTNFKTILEWEPKPVNQVYTVQISTKSGDWKSKCFYTTDTECDLTDEIVKDVKQTYLARVFSYPAGNVESTGSAGEPLYENSPEFTPYLETNLGQPTIQSFEQVGTKVNVTVADERTLVRRNNTFLSLRDVFGKDLIYTLYYWKSSSSGKKTAKTNTNEFLIDVDKGENYCFSVQAVIPSRTVNRKSTDSPVECMGQEKGEFRE
modifications: extracellular domain
sk_class [1, 7]: Neutral (neutral (little effect) 4.184 kJ/mol < ΔΔG > −4.184 kJ/mol)
sk_ddG_kJ [2, 8]: 0.38 kJ

B7: 1DAN RU131A (protein, UniProt P13726 33-251, looked up, variant R131A)
extracellular domain: SGTTNTVAAYNLTWKSTNFKTILEWEPKPVNQVYTVQISTKSGDWKSKCFYTTDTECDLTDEIVKDVKQTYLARVFSYPAGNVESTGSAGEPLYENSPEFTPYLETNLGQPTIQSFEQVGTKVNVTVEDEATLVRRNNTFLSLRDVFGKDLIYTLYYWKSSSSGKKTAKTNTNEFLIDVDKGENYCFSVQAVIPSRTVNRKSTDSPVECMGQEKGEFRE
modifications: extracellular domain
sk_class [1, 7]: Neutral (neutral (little effect) 4.184 kJ/mol < ΔΔG > −4.184 kJ/mol)
sk_ddG_kJ [2, 8]: 0.00 kJ

B8: 1DAN KT48A (protein, UniProt P13726 33-251, looked up, variant K48A)
extracellular domain: SGTTNTVAAYNLTWKSTNFKTILEWEPKPVNQVYTVQISTKSGDWKSACFYTTDTECDLTDEIVKDVKQTYLARVFSYPAGNVESTGSAGEPLYENSPEFTPYLETNLGQPTIQSFEQVGTKVNVTVEDERTLVRRNNTFLSLRDVFGKDLIYTLYYWKSSSSGKKTAKTNTNEFLIDVDKGENYCFSVQAVIPSRTVNRKSTDSPVECMGQEKGEFRE
modifications: extracellular domain
sk_class [1, 7]: Neutral (neutral (little effect) 4.184 kJ/mol < ΔΔG > −4.184 kJ/mol)
sk_ddG_kJ [2, 8]: 1.76 kJ
